How the values were obtained:
[1] = excess molar enthalpy (molar enthalpy of mixing); xn = mol fraction of the nth substance listed; conditions: 297.15 K, 101 kPa, Liquid, Constant Pressure Calorimeter
[2] = 101.33 kPa, Liquid, Pycnometric method

C1CCNCC1 [piperidine] + O
[1]
Conditions | excess molar enthalpy [kcal/mol]
x2 = 0 | 0
x2 = 0.05 | -0.0853
x2 = 0.09 | -0.123
x2 = 0.15 | -0.18
x2 = 0.21 | -0.268
x2 = 0.25 | -0.35
x2 = 0.3 | -0.4
x2 = 0.35 | -0.437
x2 = 0.4 | -0.461
x2 = 0.45 | -0.475
x2 = 0.5 | -0.511
x2 = 0.55 | -0.532
x2 = 0.6 | -0.53
x2 = 0.65 | -0.522
x2 = 0.7 | -0.495
x2 = 0.75 | -0.469
x2 = 0.93 | -0.234
x2 = 0.96 | -0.159
x2 = 0.99 | -0.0557

c1ccncc1 [pyridine]
[2]
Conditions | mass density [kg/m3]
293.95 K | 981
295.35 K | 979.2
297.25 K | 977.9
299.15 K | 975.3
301.25 K | 972.8
303.25 K | 971.7
305.15 K | 969.9
307.25 K | 967.9
309.25 K | 965.2
311.35 K | 963.6
313.15 K | 961.6
315.35 K | 959.8
317.55 K | 956.3
319.55 K | 953.9
321.15 K | 953.1

c1ccncc1 [pyridine] + O
[1]
Conditions | excess molar enthalpy [kcal/mol]
x2 = 0 | 0
x2 = 0.05 | -0.028
x2 = 0.1 | -0.061
x2 = 0.15 | -0.11
x2 = 0.2 | -0.156
x2 = 0.25 | -0.21
x2 = 0.3 | -0.247
x2 = 0.35 | -0.284
x2 = 0.4 | -0.33
x2 = 0.45 | -0.374
x2 = 0.5 | -0.389
x2 = 0.55 | -0.388
x2 = 0.6 | -0.378
x2 = 0.65 | -0.366
x2 = 0.7 | -0.332
x2 = 0.73 | -0.318
x2 = 0.89 | -0.154
x2 = 0.92 | -0.121
x2 = 0.95 | -0.0804
x2 = 0.98 | -0.0364

C1CCNCC1 [piperidine]
[2]
Conditions | mass density [kg/m3]
293.65 K | 873.5
296.05 K | 867.1
298.15 K | 864.6
300.05 K | 856.3
302.65 K | 852.4
304.55 K | 852.6
306.45 K | 852.5
308.25 K | 850.6
310.35 K | 846.3
313.75 K | 842.2
315.15 K | 840.8
317.35 K | 837.7
319.15 K | 835.3
321.15 K | 833.5
323.05 K | 831.4

O [water] + C1CCNCC1
Conditions | excess molar enthalpy [kcal/mol]
[1], x1 = 1 | 0

O [water] + c1ccncc1
Conditions | excess molar enthalpy [kcal/mol]
[1], x1 = 1 | 0

Source: the NIST ThermoML archive (doi:10.1016/j.fluid.2009.10.018)
